Columns and labels:
[1] = molecular target: T1, Solute carrier family 22 member 6 (Rattus norvegicus, UniProt O35956); experiment: TP_TRANSPORTER: quantitative PCR in vivo, SD rat, kidney; format: functional, organism-based, Sprague-Dawley
T1 sequence (O35956 whole entry): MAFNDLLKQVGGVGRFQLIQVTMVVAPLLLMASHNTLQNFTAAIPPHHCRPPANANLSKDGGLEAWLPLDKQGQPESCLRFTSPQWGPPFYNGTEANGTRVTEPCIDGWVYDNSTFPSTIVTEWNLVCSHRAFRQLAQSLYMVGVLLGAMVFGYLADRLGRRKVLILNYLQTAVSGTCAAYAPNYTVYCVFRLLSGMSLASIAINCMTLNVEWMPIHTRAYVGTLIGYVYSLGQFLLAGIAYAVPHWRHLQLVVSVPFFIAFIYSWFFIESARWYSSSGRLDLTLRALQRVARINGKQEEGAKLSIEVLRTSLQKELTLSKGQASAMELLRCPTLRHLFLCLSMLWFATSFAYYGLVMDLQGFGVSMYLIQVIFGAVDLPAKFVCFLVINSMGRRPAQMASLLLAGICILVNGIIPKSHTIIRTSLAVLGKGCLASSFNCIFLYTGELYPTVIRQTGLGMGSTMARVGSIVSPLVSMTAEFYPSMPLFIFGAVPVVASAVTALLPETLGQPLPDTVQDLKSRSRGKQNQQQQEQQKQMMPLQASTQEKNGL

[2] = molecular target: T1, Solute carrier family 22 member 6; experiment: TP_TRANSPORTER: Western in vivo, SD rat, kidney; format: functional, organism-based, Sprague-Dawley

Activity [1]: inducer []
Activity [2]: inducer []
Compound: NS(=O)(=O)c1cc(C(=O)O)c(NCc2ccco2)cc1Cl [FUROSEMIDE]
